Structures can show the parent of a compound that is named as a salt.
Assays:
[1] = biological target: T1, Nitric Oxide Synthase (NOS) (Rattus norvegicus, UniProt P29476); assay: Binding assay using nitric oxide synthase (NOS), crude preparation from rat brain cytosol, [3H]Na radioligand; conditions: test compound 10^−4M, brain cytosol of male SD rats, 10 nM [^3H]Na, 27° C., 90 minutes; for inhibition: read-out: Inhibition (%) of specific binding
T1 construct: each drug was incubated with the brain cytosol (200 μg protein/tube); from tissue; host or cells: whole brain (including cerebellum) of male SD rats, cytosolic supernatant (48,000 x g), passed through Dowex AG50WX-8
Experimental: Test: Binding Assay Using Nitric Oxide Synthase (NOS)
A crude preparation of NOS was obtained from brains of male SD rats. The whole brain (including cerebellum) was homogenized with 5 volume (W/V) of 50 mM Tris buffer (pH 7.0 at 4° C.) and centrifuged at 48,000×g for 20 minutes. The pellet was discarded and the supernatant was passed through ¼ volume (V/V) of Dowex AG50WX-8 resin (Na^+ form), in order to remove endogenous arginine. The supernatant was collected, the pH was adjusted to 7.0 at 22° C., and this cytosolic preparation was frozen and stored at −80° C. until required. In the binding assay, each drug was incubated with the brain cytosol (200 μg protein/tube) in 0.15 ml (final volume) of 50 mM Tris buffer containing 10 μM CaCl2 and 10 nM [^3H]Na (Amersham, UK). Incubation was performed at 27° C. for 90 minutes and terminated by vacuum filtration through 0.3% polyethyleneimine pretreated GF/B glass fibre filters which were subsequently washed with distilled water (4° C., 4 ml×4). Nonspecific binding was defined by use of […] Na. Data are expressed as inhibition % of specific binding.

COc1ccnc(-c2sc(NC(=N)N)nc2C)c1 [(a), 2-Guanidino-4-methyl-5-(4-methoxypyridin-2-yl)thiazole]
inhibition [1]: 99%

COc1ccnc(-c2ccc(C)c(NC(=N)N)c2)c1.Cl.Cl [(b), (5-(4-Methoxypyridin-2-yl)-2-methylphenyl)guanidine dihydrochloride]
Inhibition (%) of specific binding [1]: 98.9%

CNc1ccc2ccc(-c3cc(OC)ccn3)cc2n1 [(f), 7-(4-Methoxypyridin-2-yl)-2-methylaminoquinoline dihydrochloride]
inhibition [1]: 99.4%

Cc1ccnc(-c2ccc3ccc(N)nc3c2)c1 [(e), 2-Amino-7-(4-methylpyridin-2-yl)quinoline dihydrochloride]
inhibition [1]: 98%

COc1ccnc(-c2ccc3ccc(N)nc3c2)c1 [(d), 2-Amino-7-(4-methoxypyridin-2-yl)quinoline dihydrochloride]
inhibition [1]: 99.3%

CCSC(=N)Nc1cccc(-c2cc(OC)ccn2)c1 [(c), N-(3-(4-Methoxypyridin-2-yl)phenyl)-S-ethylisothiourea dihydrochloride]
inhibition [1]: 100%

Cc1ccnc(C(O)c2sc(NC(=N)N)nc2C)c1 (centres unmarked) [Example 24, N-(5-(hydroxy-(4-methylpyridin-2-yl)methyl)-4-methylthiazol-2-yl)guanidine]
melting point: 150.5 to 151.5 °C

CC(=O)NC(c1cc(C)ccn1)c1sc(NC(=N)N)nc1C (centres unmarked) [Example 26, N-(5-(acetylamino-(4-methylpyridin-2-yl)methyl)-4-methylthiazol-2-yl)-guanidine]
melting point: 239 to 240 °C

Reference: patent US6521643B1, “Pyridine compounds and their pharmaceutical use” (Fujisawa Pharmaceutical Co., Ltd., priority 1999, dated 2003)
